In patent US20250041277A1, “METHODS AND DOSING REGIMENS COMPRISING A CDK2 INHIBITOR AND A CDK4 INHIBITOR FOR TREATING CANCER” (PFIZER INC., priority 2021, published 2025):

Tests used:
Type in all cases: cell-based
H358 = assay: Combinatorial activity in LUAD cell line H358; conditions: Homo sapiens, NCI-H358; H358, KRAS G12C; single agent; read-out: (nM) s.a.
Procedure: (§1) Combinatorial activity of PF-07104091 and PF-07220060 was assessed in LUADs as single agents (s.a.) or in combination.

HCC44 (RB-) = assay: Combinatorial activity in LUAD cell line HCC44; conditions: Homo sapiens, KRAS G12C, single agent, read-out: (nM) s.a.
Procedure: as §1

H1373 = assay: Combinatorial activity in LUAD cell line H1373; conditions: Homo sapiens, NCI-H1373; H1373, KRAS G12C; single agent; read-out: (nM) s.a.
Procedure: as §1

H23 = assay: Combinatorial activity in LUAD cell line H23; conditions: Homo sapiens, NCI-H23; H23, KRAS G12C; single agent; read-out: (nM) s.a.
Procedure: as §1

SW1573 = assay: Combinatorial activity in LUAD cell line SW1573; conditions: Homo sapiens; SW1573, KRAS G12C; single agent; read-out: (nM) s.a.
Procedure: as §1

H1792 = assay: Combinatorial activity in LUAD cell line H1792; conditions: Homo sapiens, NCI-H1792; H1792, KRAS G12C; single agent; read-out: (nM) s.a.
Procedure: as §1

H2030 = assay: Combinatorial activity in LUAD cell line H2030; conditions: Homo sapiens, NCI-H2030; H2030, KRAS G12C; single agent; read-out: (nM) s.a.
Procedure: as §1

For `CC(C)n1c(C(C)(C)O)nc2c(F)cc(-c3nc(N[C@@H]4CCOC[C@H]4O)ncc3Cl)cc21` [PF-07220060, 1,5-anhydro-3-({5-chloro-4-[4-fluoro-2-(2-hydroxypropan-2-yl)-1-(propan-2-yl)-1H-benzimidazol-6-yl]pyrimidin-2-yl}amino)-2,3-dideoxy-D-threo-pentitol], which IC50 (H358) is on record?
Its IC50 is 120 nM.

And the IC50 (HCC44 (RB-))?
The IC50 was over 1000 nM.

What about the IC50 (H1373) of the same compound?
The IC50 was 470 nM.

What about the IC50 (H23) of the same compound?
Its IC50 is 285 nM.

What about the IC50 (SW1573) of the same compound?
Its IC50 is over 1000 nM.

And the IC50 (H1792)?
The IC50 was 210 nM.

What about the IC50 (H2030) of the same compound?
Its IC50 is 950 nM.
